pIC50: −log10 of the molar value.

The target in the first assay is T1, pSTAT3 (pY705-STAT3) (Homo sapiens, UniProt P40763).
T1 construct: host or cells: cryopreserved PBMC
T1 sequence (P40763 whole entry): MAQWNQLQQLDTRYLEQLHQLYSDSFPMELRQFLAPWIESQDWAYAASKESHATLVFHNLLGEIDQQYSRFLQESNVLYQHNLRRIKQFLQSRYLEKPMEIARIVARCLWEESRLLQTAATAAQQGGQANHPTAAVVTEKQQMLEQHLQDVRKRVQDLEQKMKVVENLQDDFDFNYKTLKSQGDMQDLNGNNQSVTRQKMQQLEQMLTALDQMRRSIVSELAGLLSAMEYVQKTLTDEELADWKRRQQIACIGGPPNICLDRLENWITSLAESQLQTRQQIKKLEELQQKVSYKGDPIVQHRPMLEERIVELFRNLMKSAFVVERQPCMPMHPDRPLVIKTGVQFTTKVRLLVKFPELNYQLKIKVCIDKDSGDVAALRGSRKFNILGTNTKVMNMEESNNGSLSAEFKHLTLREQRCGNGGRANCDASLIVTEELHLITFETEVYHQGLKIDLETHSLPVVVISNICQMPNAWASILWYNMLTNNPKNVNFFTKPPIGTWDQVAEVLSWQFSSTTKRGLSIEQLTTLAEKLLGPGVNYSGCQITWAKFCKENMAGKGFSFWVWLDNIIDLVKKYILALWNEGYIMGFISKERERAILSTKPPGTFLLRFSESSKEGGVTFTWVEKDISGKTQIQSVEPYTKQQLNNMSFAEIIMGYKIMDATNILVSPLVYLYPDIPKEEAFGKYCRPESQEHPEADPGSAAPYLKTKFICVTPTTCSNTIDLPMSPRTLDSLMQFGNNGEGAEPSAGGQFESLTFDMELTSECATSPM
Put plainly: MSD-pSTAT-PBMC Assay (pSTAT3, IL-6 stimulated).
Details: not given
Format: cell-based. Summed up: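 Human PBMCs (50,000 cells/well for STAT3, 25,000 for STAT6) treated with compound 3 h, then stimulated 10 min with 10 ng/mL IL-6 or 1 ng/mL IL-4. Lysate pSTAT3 (pY705) or pSTAT6 (pY641) measured by MSD sandwich electrochemiluminescence. Signal minus unstimulated, normalized to DMSO; IC50 by variable-slope nonlinear regression.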
Molecule `CCCOC(=O)[C@H](C)NP(=O)(Cc1ccc2sc(C(=O)N[C@H]3C[C@H]4C[C@H]4CC4CC[C@@H](C(=O)N[C@H]5CN(C(C)=O)C[C@@H]5F)N4C3=O)cc2c1)Oc1ccccc1` (stereo partly drawn) [Compound 245, propyl(((2-(((3S,6S,7aR,8aS,9aR)-3-(((3S,4S)-1-acetyl-4-fluoropyrrolidin-3-yl)carbamoyl)-5-oxodecahydro-1H-cyclopropa[d]pyrrolo[1,2-a]azocin-6-yl)carbamoyl)benzo[b]thiophen-5-yl)methyl)(phenoxy)phosphoryl)-L-alaninate] had a pIC50 of 5.52 to 6.00. Regarding `CCCOC(=O)[C@H](C)NP(=O)(Cc1ccc2sc(C(=O)N[C@H]3C[C@H]4C[C@H]4C[C@H]4CC[C@@H](C(=O)N5CC(c6cnccc6F)C5)N4C3=O)cc2c1)Oc1ccccc1` (stereo partly drawn) [Compound 251, propyl(((2-(((3S,6S,7aR,8aS,9aR)-3-(3-(4-fluoropyridin-3-yl)azetidine-1-carbonyl)-5-oxodecahydro-1H-cyclopropa[d]pyrrolo[1,2-a]azocin-6-yl)carbamoyl)benzo[b]thiophen-5-yl)methyl)(phenoxy)phosphoryl)-L-alaninate], the pIC50 is more than 7.00.

The assay is the same for the next values; noted with them: PBMC, compound 3 hrs, then 10 ng/mL IL-6 for 10 min; MSD pY705-STAT3; read-out: pSTAT3.
As for `CC(C)OC(=O)[C@H](Cc1ccccc1)OP(=O)(Oc1ccccc1)C(F)(F)c1ccc2sc(C(=O)N[C@H]3C[C@@H]4C[C@@H]4C[C@H]4CC[C@@H](C(=O)N5CC(C(=O)N6CCOCC6)C5)N4C3=O)cc2c1` (stereo partly drawn) [Compound 167, isopropyl (2S)-2-(((difluoro(2-(((3S,6S,7aS, 8aR,9aR)-3-(3-(morpholine-4-carbonyl)azetidine-1-carbonyl)-5-oxodecahydro-1H-cyclopropa[d]pyrrolo[1,2-a]azocin-6-yl)carbamoyl)benzo[b]thiophen-5-yl)methyl) (phenoxy)phosphoryl)oxy)-3-phenyl-propanoate], the pIC50 is less than 5.52. The same measure, in the same setting: the value for `C[C@H](OP(=O)(Oc1ccccc1)C(F)(F)c1ccc2sc(C(=O)N[C@H]3C[C@@H]4C[C@@H]4C[C@H]4CC[C@@H](C(=O)N5CC(C(=O)N6CCOCC6)C5)N4C3=O)cc2c1)C(=O)OCc1ccccc1` (stereo partly drawn) [Compound 174, benzyl (2S)-2-(((difluoro(2-(((3S,6S,7aS, 8aR,9aR)-3-(3-(morpholine-4-carbonyl)azetidine-1-carbonyl)-5-oxodecahydro-1H-cyclopropa[d]pyrrolo[1,2-a]azocin-6-yl)carbamoyl)benzo[b]thiophen-5-yl)methyl) (phenoxy)phosphoryl)oxy) propanoate] was 5.52 to 6.00; that for `CC(C)OC(=O)[C@H](C)NP(=O)(Cc1ccc2sc(C(=O)N[C@H]3C[C@@H]4C[C@@H]4C[C@H]4CC[C@@H](C(=O)N5CC(C(=O)N6CCOCC6)C5)N4C3=O)cc2c1)Oc1ccccc1Cl` (stereo partly drawn) [Compound 191, isopropyl ((2-chlorophenoxy) ((2-(((3S,6S, 7aS,8aR,9aR)-3-(3-(morpholine-4-carbonyl)azetidine-1-carbonyl)-5-oxodecahydro-1H-cyclopropa[d]pyrrolo[1,2-a]azocin-6-yl)carbamoyl)benzo[b]thiophen-5-yl)methyl)phosphoryl)-L-alaninate] was 6.00 to 7.00. Regarding `CCOC(=O)[C@H](C)NP(=O)(Oc1ccccc1)C(F)(F)c1ccc2sc(C(=O)N[C@H]3C[C@@H]4C[C@@H]4C[C@H]4CC[C@@H](C(=O)N5CC(C(=O)N6CCOCC6)C5)N4C3=O)cc2c1` (stereo partly drawn) [Compound 192, ethyl ((difluoro(2-(((3S,6S,7aS, 8aR,9aR)-3-(3-(morpholine-4-carbonyl)azetidine-1-carbonyl)-5-oxodecahydro-1H-cyclopropa[d]pyrrolo[1,2-a]azocin-6-yl)carbamoyl)benzo[b]thiophen-5-yl)methyl) (phenoxy)phosphoryl)-L-alaninate], the pIC50 is less than 5.52.

Regarding `CC(C)OC(=O)COP(=O)(Oc1ccccc1)C(F)(F)c1ccc2sc(C(=O)N[C@H]3C[C@@H]4C[C@@H]4C[C@H]4CC[C@@H](C(=O)N5CC(C(=O)N6CCOCC6)C5)N4C3=O)cc2c1` (stereo partly drawn) [Compound 194, isopropyl 2-(((difluoro(2-(((3S,6S,7aS, 8aR,9aR)-3-(3-(morpholine-4-carbonyl)azetidine-1-carbonyl)-5-oxodecahydro-1H-cyclopropa[d]pyrrolo[1,2-a]azocin-6-yl)carbamoyl)benzo[b]thiophen-5-yl)methyl) (phenoxy)phosphoryl)oxy) acetate], the pIC50 is 6.00 to 7.00. The same measure, in the same setting: with `CC(C)OC(=O)[C@H](C)NP(=O)(Cc1ccc2sc(C(=O)N[C@H]3C[C@@H]4C[C@@H]4C[C@H]4CC[C@@H](C(=O)N5CC(C(=O)N6CCOCC6)C5)N4C3=O)cc2c1)OCC(F)(F)F` (stereo partly drawn) [Compound 200, isopropyl (((2-(((3S,6S,7aS, 8aR,9aR)-3-(3-(morpholine-4-carbonyl)azetidine-1-carbonyl)-5-oxodecahydro-1H-cyclopropa [d]pyrrolo[1,2-a]azocin-6-yl)carbamoyl)benzo[b]thiophen-5-yl)methyl) (2,2,2-trifluoroethoxy)phosphoryl)-L-alaninate] the figure was 6.00 to 7.00. On the same count and under the same terms, with `Cn1cnnc1C1CN(C(=O)[C@@H]2CC[C@@H]3C[C@@H]4C[C@@H]4C[C@H](NC(=O)c4cc5cc(C(F)(F)P(=O)(OCCSC(=O)C(C)(C)C)OCCSC(=O)C(C)(C)C)ccc5s4)C(=O)N32)C1` [Compound 201, S,S′-((((difluoro(2-(((3S,6S,7aR, 8aS,9aR)-3-(3-(4-methyl-4H-1,2,4-triazol-3-yl)azetidine-1-carbonyl)-5-oxodecahydro-1H-cyclopropa[d]pyrrolo[1,2-a]azocin-6-yl)carbamoyl)benzo[b]thiophen-5-yl)methyl)phosphoryl)bis(oxy))bis(ethane-2,1-diyl)) bis(2,2-dimethyl-propanethioate)] the figure was more than 7.00. With `COC(=O)[C@H](C)NP(=O)(Cc1ccc2sc(C(=O)N[C@H]3C[C@@H]4C[C@@H]4C[C@H]4CC[C@@H](C(=O)N5CC(C(=O)N6CCOCC6)C5)N4C3=O)cc2c1)Oc1ccccc1` (stereo partly drawn) [Compound 216, methyl (((2-(((3S,6S,7aS, 8aR,9aR)-3-(3-(morpholine-4-carbonyl)azetidine-1-carbonyl)-5-oxodecahydro-1H-cyclopropa [d]pyrrolo[1,2-a]azocin-6-yl)carbamoyl)benzo[b]thiophen-5-yl)methyl) (phenoxy)phosphoryl)-L-alaninate], the pIC50 is 6.00 to 7.00. On the same count and under the same terms, with `CCCOC(=O)[C@H](C)NP(=O)(Cc1ccc2sc(C(=O)N[C@H]3C[C@@H]4C[C@@H]4C[C@H]4CC[C@@H](C(=O)N5CC(C(=O)N6CCOCC6)C5)N4C3=O)cc2c1)Oc1ccccc1` (stereo partly drawn) [Compound 217, propyl (((2-(((3S,6S,7aS, 8aR,9aR)-3-(3-(morpholine-4-carbonyl)azetidine-1-carbonyl)-5-oxodecahydro-1H-cyclopropa[d]pyrrolo[1,2-a]azocin-6-yl)carbamoyl)benzo[b]thiophen-5-yl)methyl) (phenoxy)phosphoryl)-L-alaninate] the figure was 6.00 to 7.00. On the same count and under the same terms, the value for `CC(C)(C)C(=O)SCCOP(=O)(OCCSC(=O)C(C)(C)C)C(F)(F)c1ccc2ccc(C(=O)N[C@H]3C[C@@H]4C[C@@H]4C[C@H]4CC[C@@H](C(=O)N5CC(n6ccnc6)C5)N4C3=O)cc2c1` [Compound 221, S,S′-(((((7-(((3S,6S,7aS, 8aR,9aR)-3-(3-(1H-imidazol-1-yl)azetidine-1-carbonyl)-5-oxodecahydro-1H-cyclopropa[d]pyrrolo[1,2-a]azocin-6-yl)carbamoyl)naphthalen-2-yl)difluoromethyl)phosphoryl)bis(oxy))bis(ethane-2,1-diyl)) bis(2,2-dimethyl-propanethioate)] was more than 7.00; that for `CC(C)OC(=O)OCOP(=O)(Cc1ccc2sc(C(=O)N[C@H]3C[C@H]4C[C@H]4C[C@H]4CC[C@@H](C(=O)N[C@@H]5CCN(c6cccnc6)C5)N4C3=O)cc2c1)OCOC(=O)OC(C)C` [Compound 226, diisopropyl (((((2-(((3S,6S,7aR, 8aS,9aR)-5-oxo-3-(((R)-1-(pyridin-3-yl)pyrrolidin-3-yl)carbamoyl)decahydro-1H-cyclopropa[d]pyrrolo[1,2-a]azocin-6-yl)carbamoyl)benzo[b]thiophen-5-yl)methyl)phosphoryl)bis(oxy))bis(methylene)) bis(carbonate)] was more than 7.00. Same read-out and setting: with `CC(C)(C)C(=O)SCCOP(=O)(OCCSC(=O)C(C)(C)C)C(F)(F)c1ccc2sc(C(=O)N[C@H]3C[C@@H]4C[C@@H]4C[C@H]4CC[C@@H](C(=O)N5CC(F)(c6ccc(C#N)cc6)C5)N4C3=O)cc2c1` [Compound 227, S,S′-(((((2-(((3S,6S,7aS, 8aR,9aR)-3-(3-(4-cyanophenyl)-3-fluoroazetidine-1-carbonyl)-5-oxodecahydro-1H-cyclopropa[d]pyrrolo[1,2-a]azocin-6-yl)carbamoyl)benzo[b]thiophen-5-yl)difluoromethyl)phosphoryl)bis(oxy))bis(ethane-2,1-diyl)) bis(2,2-dimethyl-propanethioate)] the figure was more than 7.00; with `CC(C)CC(=O)SCCOP(=O)(OCCSC(=O)CC(C)C)C(F)(F)c1ccc2sc(C(=O)N[C@H]3C[C@@H]4C[C@@H]4C[C@H]4CC[C@@H](C(=O)N5CC(c6ncccn6)C5)N4C3=O)cc2c1` [Compound 229, S,S′-((((difluoro(2-(((3S,6S,7aS, 8aR,9aR)-5-oxo-3-(3-(pyrimidin-2-yl)azetidine-1-carbonyl)decahydro-1H-cyclopropa[d]pyrrolo[1,2-a]azocin-6-yl)carbamoyl)benzo[b]thiophen-5-yl)methyl)phosphoryl)bis(oxy))bis(ethane-2,1-diyl)) bis(3-methylbutane thioate)], more than 7.00.

Turning to `CCCOC(=O)[C@H](C)NP(=O)(Oc1ccccc1)C(F)c1ccc2sc(C(=O)N[C@H]3C[C@H]4C[C@H]4C[C@H]4CC[C@@H](C(=O)N5CC(c6cnccc6F)C5)N4C3=O)cc2c1` (stereo partly drawn) [Compound 249, propyl ((fluoro(2-(((3S,6S,7aR,8aS,9aR)-3-(3-(4-fluoropyridin-3-yl)azetidine-1-carbonyl)-5-oxodecahydro-1H-cyclopropa[d]pyrrolo[1,2-a]azocin-6-yl)carbamoyl)benzo[b]thiophen-5-yl)methyl)(phenoxy)phosphoryl)-L-alaninate], the pIC50 was more than 7.00.

Values taken from patent publication US20250215030A1, “STAT MODULATORS AND USES THEREOF” (Recludix Pharma, Inc., priority 2022, published 2025).
